Data taken from patent US10849958B2, “Knee pain evaluation and management via WOMAC and KOOS systems” (ORTHOTROPHIX, INC., priority 2017, dated 2020).
Ends that are not written are not given here.

Tested on: subjects with bilateral patello-femoral knee osteoarthritis
Assay: Randomized double-blind placebo-controlled clinical study of TPX-100, safety and tolerability
Type: in vivo, human
[1] = intra-articular, four weekly doses, throughout the study period

TDLQERGDNDISPFSGDGQPFKD-NH2 [TPX-100] was tested, and the Dose-limiting toxicities (Part A, 20, 50, 100 and 200 mg per intra-articular injection, four weekly injections) was “no dose-limiting toxicities”, the “Severe adverse events related to the drug treatment” value [1] was “no severe adverse events likely or possibly related to the drug treatment” and the “Severity of treatment-related adverse events” value [1] was “mild or moderate, transient”. The “Safety and tolerability of the treatments” value (intra-articular, four weekly doses, throughout the study period (12 months)) was “safe and well tolerated”.
